Where two headings read alike, the source gives them in different places.
Assays:
[1] = tested on: simple and complex partial seizures and secondarily generalized seizures; conditions: adjunctive therapy or monotherapy, human epilepsy; cited from earlier work
[2] = Weight loss in patients treated with topiramate as adjunctive therapy in epilepsy; assay type: in vivo, human
Procedure: Further, carboxylic acids and aldehydes of the formulae RCOOH and RCHO may be reduced to compounds of the formula RCH2OH by standard reduction techniques, e.g. reaction with lithium aluminum hydride, sodium borohydride or borane-THF complex in an inert solvent such a diglyme, THF or toluene at a temperature of about 0° to 100° C., e.g. as described by H. O. House in “Modern Synthetic Reactions”, 2nd Ed., pages 45 to 144 (1972). In patients treated with topiramate as an adjunctive therapy in epilepsy (n=1319), mean weight loss of 4.6% of baseline weight was observed. The mean daily dosage of topiramate was 621.9 mg/day and the mean duration of dosing was 688.8 days. […] On topiramate treatment, there is gradual weight loss over time, with maintenance of the weight lost to 24 months of therapy; thus the mean percentage decrease in weight for all subjects (n=1319) was 4.6%, with similar weight loss maintained at one year (4.9%) and two years (4.5%) of treatment. This pattern is also seen in those patients with weight in excess of 100 kg at baseline (n=127), who lost a mean of 8.4% weight overall, with loss of 9.4% at one year and 9.9% at two years.

[3] = overweight individuals; cited from earlier work
seizures [4] = conditions: animal model of kindled epilepsy; cited from earlier work
seizures [5] = conditions: several rodent models of epilepsy; cited from earlier work

For CC1(C)O[C@@H]2[C@@H](CO[C@@]3(COS(N)(=O)=O)OC(C)(C)O[C@@H]23)O1 [topiramate, 2,3:4,5-bis-O-(1-methylethylidene)-β-D-fructopyranose sulfamate], the “efficacy in treating seizures” value [1] is given as “effective as adjunctive therapy or as monotherapy”, the “mean percentage decrease in weight” value ([2]; all subjects (n=1319), at one year of treatment) is given as 4.9% and the “mean percentage decrease in weight” value ([2]; all subjects (n=1319), at two years of treatment) is given as 4.5%. For the same molecule, the “mean weight loss of baseline weight” value ([2]; all subjects (n=1319), overall, mean daily dosage 621.9 mg/day, mean duration of dosing 688.8 days) was 4.6%, the “mean decrease in weight” value ([2]; subjects >100 kg at baseline (n=127), at one year) was 9.4% and the “mean decrease in weight” value ([2]; subjects >100 kg at baseline (n=127), at two years) was 9.9%. For the same molecule, the “mean decrease in weight” value ([2]; subset of subjects weighing >100 kg at baseline (n=127), overall, mean daily dose 873.5 mg/day, mean duration of dosing 881.8 days) was 8.4%, the weight reduction [3] was “effectively reduce the weight” and the seizure block (seizures [4]) was “effectively block seizures”. For the same molecule, the seizure block (seizures [5]) was “effectively block seizures”.
